pIC50: −log10 of the molar value.
Key:
[1] = molecular target: T1, Recombinant purified human JAK3 (Homo sapiens, UniProt P52333); assay: JAK3 kinase inhibitory activity, ADP-Glo kinase assay (Promega V9441); assay type: biochemical; settings: ATP 5 uM, 4 ng JAK3 per reaction, 1 hour 30 °C, chemiluminescence
T1 construct: purchased Promega V9441
T1 sequence (P52333 1-1124): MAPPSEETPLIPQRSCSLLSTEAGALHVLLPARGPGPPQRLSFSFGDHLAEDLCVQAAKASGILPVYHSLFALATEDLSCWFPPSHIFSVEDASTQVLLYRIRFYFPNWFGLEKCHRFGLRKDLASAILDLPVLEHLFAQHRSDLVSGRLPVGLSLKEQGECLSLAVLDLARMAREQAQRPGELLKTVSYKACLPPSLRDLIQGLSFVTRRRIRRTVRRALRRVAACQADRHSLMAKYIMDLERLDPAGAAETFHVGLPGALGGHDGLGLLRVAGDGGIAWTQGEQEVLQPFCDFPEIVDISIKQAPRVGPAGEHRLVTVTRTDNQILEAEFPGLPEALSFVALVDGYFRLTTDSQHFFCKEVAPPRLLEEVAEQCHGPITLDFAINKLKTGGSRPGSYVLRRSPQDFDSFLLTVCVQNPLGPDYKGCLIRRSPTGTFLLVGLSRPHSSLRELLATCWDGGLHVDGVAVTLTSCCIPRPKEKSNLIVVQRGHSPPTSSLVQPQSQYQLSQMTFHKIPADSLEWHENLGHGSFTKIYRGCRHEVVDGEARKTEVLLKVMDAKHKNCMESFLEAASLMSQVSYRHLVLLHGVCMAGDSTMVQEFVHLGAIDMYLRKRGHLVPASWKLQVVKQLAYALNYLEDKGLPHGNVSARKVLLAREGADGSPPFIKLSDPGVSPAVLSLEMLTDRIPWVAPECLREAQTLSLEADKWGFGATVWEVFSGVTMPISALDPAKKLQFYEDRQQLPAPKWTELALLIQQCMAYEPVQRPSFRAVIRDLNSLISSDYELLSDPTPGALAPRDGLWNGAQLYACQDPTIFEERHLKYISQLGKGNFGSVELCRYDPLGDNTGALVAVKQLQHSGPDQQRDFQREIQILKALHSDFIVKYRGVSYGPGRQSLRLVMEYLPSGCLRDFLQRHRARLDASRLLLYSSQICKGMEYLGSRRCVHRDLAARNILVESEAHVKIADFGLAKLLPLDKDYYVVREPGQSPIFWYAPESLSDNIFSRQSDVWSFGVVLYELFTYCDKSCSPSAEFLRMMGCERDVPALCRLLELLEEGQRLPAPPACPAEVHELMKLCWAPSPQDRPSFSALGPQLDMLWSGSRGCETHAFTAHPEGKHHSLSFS
Method: (§1) JAK3 and BTK kinase inhibitory activities were measured for the compounds prepared in the above Examples through in vitro analysis on the ADP Glow (Glo) platform.
(§2) Specifically, the inhibitory activities of JAK3 and BTK kinase were measured using a JAK3 kinase assay kit (Promega, V9441) and a BTK kinase assay kit (Promega, V9071) which were purchased from Promega. Recombinant purified human JAK3 and BTK were diluted with 1 x kinase reaction buffer (JAK3: 40 mM Tris-Cl, pH 7.5, 20 mM MgCh, 0.1 mg/mL BSA and 50 uM DTT / BTK: 40 mM Tris-Cl, pH 7.5, 20 mM MgCl2, 0.1 mg/mL BSA, 2 mM MnCl2 and 50 uM DTT) and added to a 96 well plate (JAK3: final concentration of 4 ng per reaction/BTK: final concentration of 8 ng per reaction). The compounds were treated so as to be finally a 1% DMSO aqueous solution, and a substrate cocktail containing ATP (JAK3: final concentration of 5 uM / BTK: final concentration of 10 uM) and 0.2 µg/µL of Poly(Glu4, Tyr1) peptide (JAK3 and BTK final concentration) in the total 25 µL reactants was added to a 96-well plate to initiate enzymatic reaction. After incubation (30 °C) for 1 hour, equivalent volume (25 µL per reaction) of ADP Glo was added and incubated (30 °C) for 40 minutes at room temperature. Then, a kinase detection reagent (50 µL per reaction) was added and incubated (30 °C) for 30 minutes at room temperature. The kinase activity was measured by chemiluminescence according to the instructions of ADP Glo kinase assay kit, and the inhibitory activity of the compounds according to the present invention was calculated. For the analysis of the results of each compound, Microsoft Excel was used, and IC50 values were calculated by SigmaPlot software.

[2] = molecular target: T2, Recombinant purified human BTK (Homo sapiens, UniProt Q06187); assay: BTK kinase inhibitory activity, ADP-Glo kinase assay (Promega V9071); assay type: biochemical; settings: ATP 10 uM, 8 ng BTK per reaction, 1 hour 30 °C, chemiluminescence
T2 construct: purchased Promega V9071
Method: as §1, §2

T2 sequence (Q06187 whole entry): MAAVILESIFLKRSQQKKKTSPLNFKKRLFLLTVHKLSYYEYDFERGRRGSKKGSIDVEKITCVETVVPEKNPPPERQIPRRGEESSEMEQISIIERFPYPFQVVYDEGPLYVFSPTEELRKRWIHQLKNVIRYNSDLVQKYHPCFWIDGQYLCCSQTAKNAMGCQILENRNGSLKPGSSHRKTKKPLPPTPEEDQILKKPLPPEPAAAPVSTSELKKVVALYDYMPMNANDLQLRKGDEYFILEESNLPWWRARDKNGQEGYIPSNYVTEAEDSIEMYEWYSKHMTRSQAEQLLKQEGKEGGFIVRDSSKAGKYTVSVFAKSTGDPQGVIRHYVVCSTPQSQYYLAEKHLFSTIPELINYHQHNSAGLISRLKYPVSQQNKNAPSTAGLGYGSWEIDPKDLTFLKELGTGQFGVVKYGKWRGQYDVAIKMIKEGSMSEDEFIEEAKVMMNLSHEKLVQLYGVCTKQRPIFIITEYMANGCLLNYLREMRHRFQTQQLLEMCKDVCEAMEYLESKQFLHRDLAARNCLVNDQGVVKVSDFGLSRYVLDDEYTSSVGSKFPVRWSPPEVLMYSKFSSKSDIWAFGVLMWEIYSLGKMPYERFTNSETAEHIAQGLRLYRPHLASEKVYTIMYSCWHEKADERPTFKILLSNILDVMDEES

C=CC(=O)N1CCC[C@@H](Nc2nc(Nc3cnn(CC)c3)nc3[nH]ncc23)C1 [Example 33, (R)-1-(3-(6-(1-ethyl-1H-pyrazol-4-ylamino)-1H-pyrazolo[3,4-d]pyrimidin-4-ylamino)piperidin-1-yl)prop-2-en-1-one]
pIC50 [1]: 8.31
pIC50 [2]: 8.80

C=CC(=O)N1CCC[C@@H](Nc2nc(Nc3cnn(C(F)F)c3)nc3[nH]ncc23)C1 [Example 34, (R)-1-(3-(6-(1-(difluoromethyl)-1H-pyrazol-4-ylamino)-1H-pyrazolo [3,4-d]pyrimidin-4-ylamino)piperidin-1-yl)prop-2-en-1-one]
pIC50 [1]: 8.47
pIC50 [2]: 8.68

C=CC(=O)N1CCC[C@@H](Nc2nc(Nc3cnn(CC(=O)NC)c3)nc3[nH]ncc23)C1 [Example 35, (R)-2-(4-(4-(1-acryloylpiperidin-3-ylamino)-1H-pyrazolo[3,4-d]pyrimidin-6-ylamino)-1H-pyrazol-1-yl)-N-methylacetamide]
pIC50 [1]: 8.28
pIC50 [2]: 8.68

C=CC(=O)N1CCC[C@@H](Nc2nc(Nc3ccc(N4CCN(C)CC4)cc3)nc3[nH]cc(Cl)c23)C1 [Example 36, (R)-1-(3-(5-chloro-2-(4-(4-methylpiperazin-1-yl)phenylamino)-7H-pyrrolo [2,3-d]pyrimidin-4-ylamino)piperidin-1-yl)prop-2-en-1-one]
pIC50 [1]: 8.96
pIC50 [2]: 7.78

C=CC(=O)N1CCC[C@@H](Nc2nc(Nc3cnn(CC)c3)nc3[nH]cc(Cl)c23)C1 [Example 37, (R)-1-(3-(5-chloro-2-(1-ethyl-1H-pyrazol-4-ylamino)-7H-pyrrolo[2,3-d]pyrimidin-4-ylamino)piperidin-1-yl)prop-2-en-1-one]
pIC50 [1]: 10.00
pIC50 [2]: 8.60

C=CC(=O)N1CCC[C@@H](Nc2nc(Nc3cnn(C(F)F)c3)nc3[nH]cc(Cl)c23)C1 [Example 38, (R)-1-(3-(5-chloro-2-(1-(difluoromethyl)-1H-pyrazol-4-ylamino)-7H-pyrrolo[2,3-d]pyrimidin-4-ylamino)piperidin-1-yl)prop-2-en-1-one]
pIC50 [1]: 10.00
pIC50 [2]: 8.37

C=CC(=O)N1CCC[C@@H](Nc2nc(Nc3cnn(CC(F)F)c3)nc3[nH]cc(Cl)c23)C1 [Example 39, (R)-1-(3-(5-chloro-2-(1-(2,2-difluoroethyl)-1H-pyrazol-4-ylamino)-7H-pyrrolo[2,3-d]pyrimidin-4-ylamino)piperidin-1-yl)prop-2-en-1-one]
pIC50 [1]: 10.00
pIC50 [2]: 8.72

C=CC(=O)N1CCC[C@@H](Nc2nc(Nc3cnn(CCN4CCOCC4)c3)nc3[nH]cc(Cl)c23)C1 [Example 40, (R)-1-(3-(5-chloro-2-(1-(2-morpholinoethyl)-1H-pyrazol-4-ylamino)-7H-pyrrolo [2,3-d]pyrimidin-4-ylamino)piperidin-1-yl)prop-2-en-1-one]
pIC50 [1]: 9.70
pIC50 [2]: 8.74

C=CC(=O)N1CCC[C@@H](Nc2nc(Nc3cnn(Cc4cccc(OC)c4)c3)nc3[nH]cc(Cl)c23)C1 [Example 41, (R)-1-(3-(5-chloro-2-(1-(3-methoaybenzyl)-1H-pyrazol-4-ylamino)-7H-pyrrolo[2,3-d]pyrimidin-4-ylamino)piperidin-1-yl)prop-2-en-1-one]
pIC50 [1]: 9.30
pIC50 [2]: 8.74

C=CC(=O)N1CCC[C@@H](Nc2nc(Nc3ccc(N4CCN(C)CC4)cc3)nc3[nH]nc(Cl)c23)C1 [Example 42]
pIC50 [1]: 8.29
pIC50 [2]: 8.49

C=CC(=O)N1CCC[C@@H](Nc2nc(Nc3ccc(-n4nc(C)cc4C)cc3)nc3[nH]nc(Cl)c23)C1 [Example 43]
pIC50 [1]: 8.00
pIC50 [2]: 8.17

C=CC(=O)N1CCC[C@@H](Nc2nc(Nc3cnn(CC(F)F)c3)nc3[nH]nc(Cl)c23)C1 [Example 44, (R)-1-(3-(3-chloro-6-(1-(2,2-difluoroethyl)-1H-pyrazol-4-ylamino)-1H-pyrazolo[3,4-d]pyrimidin-4-ylamino)piperidin-1-yl)prop-2-en-1-one]
pIC50 [1]: 9.52
pIC50 [2]: 8.60

C=CC(=O)N1CCC[C@@H](Nc2nc(Nc3cnn(C)c3)nc3[nH]nc(Cl)c23)C1 [Example 45, (R)-1-(3-(3-chloro-6-(1-methyl-1H-pyrazol-4-ylamino)-1H-pyrazolo [3,4-d]pyrimidin-4-ylamino)piperidin-1-yl)prop-2-en-1-one]
pIC50 [1]: 9.15
pIC50 [2]: 8.54

C=CC(=O)N1CCC[C@@H](Nc2nc(Nc3cnn(CC(=O)NC)c3)nc3[nH]nc(Cl)c23)C1 [Example 47, (R)-2-(4-(4-(1-acryloylpiperidin-3-ylamino)-3-chloro-1H-pyrazolo[3,4-d]pyrimidin-6-ylamino)-1H-pyrazol-1-yl)-N-methylacetamide]
pIC50 [1]: 8.96
pIC50 [2]: 8.28

C=CC(=O)N1CCC[C@@H](Nc2nc(Nc3cnn(C4CCOCC4)c3)nc3[nH]nc(Cl)c23)C1 [Example 48, (R)-1-(3-(3-chloro-6-(1-(tetrahydro-2H-pyran-4-yl)-1H-pyrazol-4-ylamino)-1H-pyrazolo[3,4-d]pyrimidin-4-ylamino)piperidin-1-yl)prop-2-en-1-one]
pIC50 [1]: 9.40
pIC50 [2]: 9.05

C=CC(=O)N1CCC[C@@H](Nc2nc(Nc3cnn(C4CC4)c3)nc3[nH]nc(Cl)c23)C1 [Example 49, (R)-1-(3-(3-chloro-6-(1-cyclopropyl-lH-pyrazol-4-ylamino)-1H-pyrazolo [3,4-d]pyrimidin-4-ylamino)piperidin-1-yl)prop-2-en-1-one]
pIC50 [1]: 9.15
pIC50 [2]: 9.05

C=CC(=O)N1CCC[C@@H](Nc2nc(Nc3cnn(C(C)C)c3)nc3[nH]nc(Cl)c23)C1 [Example 50, (R)-1-(3-(3-chloro-6-(1-isopropyl-1H-pyrazol-4-ylamino)-1H-pyrazolo[3,4-d]pyrimidin-4-ylamino)piperidin-1-yl)prop-2-en-1-one]
pIC50 [1]: 9.10
pIC50 [2]: 8.74

C=CC(=O)N1CCC[C@@H](Nc2nc(Nc3cnn(CCC)c3)nc3[nH]nc(Cl)c23)C1 [Example 51, (R)-1-(3-(3-chloro-6-(1-propyl-lH-pyrazol-4-ylamino)-1H-pyrazolo [3,4-d]pyrimidin-4-ylamino)piperidin-1-yl)prop-2-en-1-one]
pIC50 [1]: 9.10
pIC50 [2]: 8.74

C=CC(=O)N1CCC[C@@H](Nc2nc(Nc3cnn(CC#N)c3)nc3[nH]nc(Cl)c23)C1 [Example 52, (R)-2-(4-(4-(1-acryloylpiperidin-3-ylamino)-3-chloro-1H-pyrazolo[3,4-d]pyrimidin-6-ylamino)-1H-pyrazol-1-yl)acetonitrile]
pIC50 [1]: 9.70
pIC50 [2]: 9.10

C=CC(=O)N1CCC[C@@H](Nc2nc(Nc3cnn(C(C)(C)C)c3)nc3[nH]nc(Cl)c23)C1 [Example 53, (R)-1-(3-(6-(1-tert-butyl-1H-pyrazol-4-ylamino)-3-chloro-1H-pyrazolo[3,4-d]pyrimidin-4-ylamino)piperidin-1-yl)prop-2-en-1-one]
pIC50 [1]: 9.00
pIC50 [2]: 9.05

C=CC(=O)N1CCC[C@@H](Nc2nc(Nc3cnn(CCN4CCOCC4)c3)nc3[nH]nc(Cl)c23)C1 [Example 54, (R)-1-(3-(3-chloro-6-(1-(2-morpholinoethyl)-1H-pyrazol-4-ylamino)-1H-pyrazolo [3,4-d]pyrimidin-4-ylamino)piperidin-1-yl)prop-2-en-1-one]
pIC50 [1]: 9.15
pIC50 [2]: 8.74

From EP3478687B1 (Daewoong Pharmaceutical Co., Ltd., priority 2016, dated 2018)
